Here are results for ten compounds from ChEMBL document CHEMBL1201862, “PubChem BioAssay data set” (2004).

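96-well plates; 48 h exposure; 5 concentrations. Endpoints by linear interpolation between flanking doses. Not reached: highest tested concentration assigned. Abbreviation: GI50, concentration required for 50% inhibition of growth.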 Active and inactive are the calls of the source. Cut-off read from the data, not from the text of the source: active = GI50 up to about 1.1 µM and inactive = higher.

Some test systems named below: SK-OV-3; M14; SK-MEL-5; T47D; SF-539; EKVX; MDA-MB-435; NCI-H226; UACC-62; MOLT-4; A549; IGROV-1; K562; A498; LOX IMVI; OVCAR-3; SNB-19; MDA-MB-231; BT-549; MCF7.
Assay in all cases: NCI-60 cell line screen, 48 h

Regarding `CCCCCCCCOC(=O)c1cc([N+](=O)[O-])c(Sc2[nH]cnc3ncnc2-3)c([N+](=O)[O-])c1`, the GI50 with SK-OV-3 is 0.695 µM (active); in the experiment with M14, 0.56 µM (active); in the experiment with SK-MEL-5, 3.57 µM (inactive); in the experiment with T47D it was 0.465 µM (active); in the experiment with SF-539, 2 µM (inactive); in the experiment on EKVX it was 8.71 µM (inactive). Besides, the GI50 was 2.06 µM (inactive) in the experiment on MDA-MB-435; 2.03 µM (inactive) in the experiment on NCI-H226; 2.9 µM (inactive) with UACC-62; 0.857 µM (active) in the experiment on MOLT-4; 7.98 µM (inactive) in the experiment on A549; 4.07 µM (inactive) in the experiment with IGROV-1. The GI50 in the experiment with K562 was 0.366 µM (active); in the experiment with A498 it was 17 µM (inactive); with LOX IMVI, 0.296 µM (active); in the experiment on OVCAR-3, 1.01 µM (active); with SNB-19, 18.1 µM (inactive); in the experiment with MDA-MB-231, 7.19 µM (inactive). Further, the GI50 with BT-549 was 2.95 µM (inactive); in the experiment on MCF7, 1.59 µM (inactive).
For the compound `COc1cc(C2OC[C@@H]3C(=O)OC[C@H]23)cc(O)c1OC` (stereo not given in full), the GI50 with SK-OV-3, with M14, in the experiment on SK-MEL-5, in the experiment with T47D, with SF-539 and in the experiment on EKVX was > 100 µM (inactive) throughout. Also, the GI50 in the experiment with MDA-MB-435, in the experiment on NCI-H226, in the experiment on UACC-62, in the experiment on MOLT-4, in the experiment on A549 and with IGROV-1 was > 100 µM (inactive) in each case. For the same compound, the GI50 with K562, with A498, in the experiment on LOX IMVI, in the experiment on OVCAR-3, in the experiment with SNB-19 and with MDA-MB-231 was > 100 µM (inactive) each time. The GI50 in the experiment with BT-549 and with MCF7 was > 100 µM (inactive) each time.
Consider `Cn1c(=O)c2c(nc3n2CC(C(=O)O)N3)n(C)c1=O` (stereo not given), for which the GI50 with SK-OV-3, in the experiment on M14, in the experiment with SK-MEL-5, in the experiment with T47D, with SF-539 and with EKVX was > 100 µM (inactive) each time. The GI50 in the experiment with MDA-MB-435 is > 100 µM (inactive); in the experiment with NCI-H226, > 100 µM (inactive); in the experiment on UACC-62 it was > 100 µM (inactive); in the experiment with MOLT-4 it was 0.036 µM (active); in the experiment with A549, > 100 µM (inactive); in the experiment on IGROV-1, > 100 µM (inactive). For the same compound, the GI50 with K562 was 9.1 µM (inactive); in the experiment with A498, > 100 µM (inactive); with LOX IMVI, > 100 µM (inactive); in the experiment with OVCAR-3 it was > 100 µM (inactive); in the experiment with SNB-19 it was > 100 µM (inactive); in the experiment on MDA-MB-231, > 100 µM (inactive). Moreover, the GI50 in the experiment on BT-549 and with MCF7 was > 100 µM (inactive) each time.
As for `O=C(O)C1OC1(c1cccc(Cl)c1)c1ccccc1Cl` (stereo not given), the GI50 in the experiment on SK-OV-3 is 22.5 µM (inactive); in the experiment on M14, 18.8 µM (inactive); in the experiment on SK-MEL-5, 20 µM (inactive); in the experiment with T47D, 20.7 µM (inactive); with SF-539, 25.9 µM (inactive); with EKVX, 25.4 µM (inactive). Further, the GI50 in the experiment with MDA-MB-435 is 22.9 µM (inactive); in the experiment with NCI-H226, 38.2 µM (inactive); in the experiment with UACC-62 it was 14.8 µM (inactive); in the experiment with MOLT-4, 27.5 µM (inactive); with A549, 35.8 µM (inactive); in the experiment on IGROV-1, 34.9 µM (inactive). Moreover, the GI50 with K562 is 16.7 µM (inactive); in the experiment with A498 it was 79.1 µM (inactive); with LOX IMVI, 18 µM (inactive); with OVCAR-3, 16.1 µM (inactive); with SNB-19 it was 33.9 µM (inactive); in the experiment on MDA-MB-231, 18.1 µM (inactive). For the same compound, the GI50 in the experiment with BT-549 was 18.8 µM (inactive); with MCF7, 29.4 µM (inactive).
Consider `O=C(Nc1ccc(Cl)cc1Cl)C1C(=O)OC2(CCCCC2)OC1=O`, for which the GI50 was 10.6 µM (inactive) in the experiment with SK-OV-3; 8.77 µM (inactive) in the experiment with M14; 2.17 µM (inactive) with SK-MEL-5; 12.5 µM (inactive) in the experiment on T47D; 9.66 µM (inactive) in the experiment with SF-539; 11.9 µM (inactive) in the experiment with EKVX. Also, the GI50 in the experiment on MDA-MB-435 was 8.2 µM (inactive); in the experiment on NCI-H226, 12.6 µM (inactive); in the experiment with UACC-62, 11 µM (inactive); in the experiment with MOLT-4, 5.15 µM (inactive); in the experiment on A549, 4.71 µM (inactive); in the experiment with IGROV-1, 5.98 µM (inactive). Also, the GI50 is 4.72 µM (inactive) with K562; 12.8 µM (inactive) in the experiment on A498; 6.22 µM (inactive) in the experiment on LOX IMVI; 3.18 µM (inactive) in the experiment with OVCAR-3; 5.26 µM (inactive) in the experiment on SNB-19; 14.1 µM (inactive) in the experiment with MDA-MB-231. For the same compound, the GI50 was 10.7 µM (inactive) in the experiment with BT-549 and 7.29 µM (inactive) with MCF7.
Regarding `O=C(O)C(Cc1c[nH]c2ccccc12)C(=O)NO` (stereo not given), the GI50 is > 100 µM (inactive) in the experiment with SK-OV-3; > 100 µM (inactive) in the experiment with M14; > 100 µM (inactive) in the experiment with SK-MEL-5; > 100 µM (inactive) in the experiment on T47D; > 100 µM (inactive) in the experiment on SF-539; 14.2 µM (inactive) in the experiment on EKVX. Also, the GI50 in the experiment with MDA-MB-435, in the experiment with NCI-H226, in the experiment with UACC-62, with MOLT-4, in the experiment with A549 and in the experiment on IGROV-1 was > 100 µM (inactive) in each case. Further, the GI50 with K562 is > 100 µM (inactive); with A498 it was > 100 µM (inactive); in the experiment with LOX IMVI, > 100 µM (inactive); in the experiment with OVCAR-3 it was 96.8 µM (inactive); in the experiment with SNB-19 it was > 100 µM (inactive); with MDA-MB-231, > 100 µM (inactive). In addition, the GI50 in the experiment with BT-549 and in the experiment with MCF7 was > 100 µM (inactive) throughout.
With `CC1(C)C2CCC3=C(CCC4(C)C5C[C@](C)(C(=O)O)CC[C@]5(C)CC[C@]34C)[C@@]2(C)CC[C@@H]1O` (stereo not given in full), the GI50 with SK-OV-3 is 20.2 µM (inactive); in the experiment with M14, 17.5 µM (inactive); with SK-MEL-5, 34.3 µM (inactive); in the experiment with T47D it was 18 µM (inactive); in the experiment on SF-539, 37.3 µM (inactive); in the experiment on EKVX, 20.4 µM (inactive). The GI50 is 23.7 µM (inactive) in the experiment with MDA-MB-435; 29 µM (inactive) in the experiment with NCI-H226; 19.3 µM (inactive) in the experiment with UACC-62; 15.8 µM (inactive) in the experiment on MOLT-4; 13.1 µM (inactive) with A549; 24.2 µM (inactive) in the experiment with IGROV-1. The GI50 was 16.6 µM (inactive) in the experiment with K562; 26.5 µM (inactive) in the experiment on A498; 14.8 µM (inactive) in the experiment on LOX IMVI; 15.9 µM (inactive) in the experiment with OVCAR-3; > 10 µM (inactive) in the experiment with SNB-19; 17.9 µM (inactive) with MDA-MB-231. The GI50 in the experiment with BT-549 is 20.1 µM (inactive); in the experiment on MCF7, 19.9 µM (inactive).
With `CC(=O)Nc1ccc(-c2nc3ccccc3s2)cc1Br`, the GI50 in the experiment with SK-OV-3 was 23.2 µM (inactive); in the experiment with M14, 77.4 µM (inactive); in the experiment on SK-MEL-5, > 100 µM (inactive); in the experiment with T47D, 0.687 µM (active); with SF-539 it was 27.3 µM (inactive); with EKVX, 10.5 µM (inactive). Moreover, the GI50 is > 100 µM (inactive) in the experiment on MDA-MB-435; 2.42 µM (inactive) in the experiment with NCI-H226; > 72.1 µM (inactive) with UACC-62; > 100 µM (inactive) in the experiment with MOLT-4; > 86.9 µM (inactive) in the experiment on A549; 0.0124 µM (active) in the experiment with IGROV-1. For the same compound, the GI50 in the experiment with K562 is > 100 µM (inactive); in the experiment with A498, 4.54 µM (inactive); with LOX IMVI, 71.1 µM (inactive); in the experiment on OVCAR-3, 0.305 µM (active); in the experiment on SNB-19, 37.5 µM (inactive); with MDA-MB-231, 39.2 µM (inactive). Further, the GI50 was 29.1 µM (inactive) with BT-549 and 0.141 µM (active) in the experiment on MCF7.
For the compound `COc1ccc2cc(CNCCOCCOCCNCc3ccc4cc(OC)ccc4c3)ccc2c1`, the GI50 in the experiment on SK-OV-3 was 1.79 µM (inactive); with M14, 0.26 µM (active); in the experiment on SK-MEL-5, 0.675 µM (active); with T47D, 1.06 µM (active); with SF-539 it was 1.54 µM (inactive); in the experiment with EKVX it was 1.57 µM (inactive). Further, the GI50 in the experiment on MDA-MB-435 was 0.494 µM (active); in the experiment on NCI-H226 it was 1.55 µM (inactive); with UACC-62, 1.78 µM (inactive); with MOLT-4, 0.402 µM (active); in the experiment with A549, 1.58 µM (inactive); in the experiment with IGROV-1, 1.63 µM (inactive). In addition, the GI50 in the experiment with K562 was 0.118 µM (active); in the experiment with A498 it was 1.68 µM (inactive); with LOX IMVI, 0.467 µM (active); in the experiment with OVCAR-3, 1.73 µM (inactive); in the experiment on SNB-19, 1.49 µM (inactive); with MDA-MB-231, 1 µM (active). The GI50 in the experiment on BT-549 was 1.89 µM (inactive); in the experiment on MCF7 it was 0.887 µM (active).
For the compound `CCCCCC(=O)Nc1[nH]cnc1C(N)=O`, the GI50 with SK-OV-3, in the experiment with M14, with SK-MEL-5, in the experiment with T47D, in the experiment with SF-539 and with EKVX was > 100 µM (inactive) each time. Also, the GI50 with MDA-MB-435, with NCI-H226, in the experiment on UACC-62, in the experiment on MOLT-4, in the experiment with A549 and in the experiment on IGROV-1 was > 100 µM (inactive) in each case. For the same compound, the GI50 with K562, in the experiment on A498, with LOX IMVI, in the experiment on OVCAR-3, in the experiment with SNB-19 and with MDA-MB-231 was > 100 µM (inactive) each time. The GI50 with BT-549 and in the experiment with MCF7 was > 100 µM (inactive) in each case.
